In one assay the test system is MV-4-11. Briefly: Oncology cell growth assay MV-4-11 (CellTiter Glo, 72 hours). Type of assay: cell-based. The following applies: Homo sapiens, MV4-11, 72 h; MV-4-11 cell growth inhibitory activity, 3d. From the text: (§1) Published bromodomain inhibitors JQ1 and iBET 151 have shown activity in variety of cancer cells such leukemia and lymphoma, multiple myeloma cells, NUT midline carcinoma and glioblastoma cells (Dawson M A et al. 2011; Delmore J E 2011; Chen Z et al. 2013; Filippakopoulos P et al. 2010; Mertz J A et al. 2011; Ott C J et al. 2012). In this study, we test compounds in different cancer cell lines. MV-4-11 and MOLM-13 are AML cell lines harboring a MLL-AF4 and MLL-AF9 translocation, respectively. MM.1S is a multiple myeloma cell line. SK-N-AS, IMR-32 and SK-N-BE(2) are neuroblastoma cell lines. IMR-32 and SK-N-BE(2) cell lines harbor MYCN amplifications. MV-4-11, MM.1S, IMR-32, SK-N-AS and SK-N-BE(2) were obtained from ATCC (IL, USA) and MOLM-13 were purchased from DSMZ (Braunschweig, German). Cells are cultured as recommended by their sources. For growth inhibition studies 3000 cells are seeded in wells of a 96-well plate in 75 μL of culture media. After several hours, growth media containing compounds of formula (I) are added to the wells. Compound at a maximal concentration of 5 mM was serially diluted 1:3 for a total of 8 point titration with DMSO as a control. A 1 μL aliquot of each dilution point is added to 249 μL growth media and 75 μL is added to each well containing cells, providing 10 μM compound at the maximum concentration point. The final concentration of DMSO in all wells is 0.2%. Cells are incubated for 72 hours, and 25 μL of CellTiter Glo Reagent (Promega Ga., USA) is added to each well. Plates are shaken for approximately 10 minutes and chemiluminescent signal is read on Tecan microplate reader. The measured luminescence correlates directly with cell number.
(§2) All data is normalized to the mean of eight DMSO high control wells on each plate. A four parameter curve fit of the following formula was then applied: Y=a+(b−a)/(1+(x/c)^d) Where ‘a’ is the minimum, ‘b’ is the maximum, ‘c’ is the pIC50 and ‘d’ is the Hill slope. […] Myc Reporter Assay
The following table provides data indicating the BRD4 biochemical inhibitory activity and MV-4-11 cell growth inhibitory activity for exemplary compounds as described herein.
In general terms: ATP-based viability assays read luminescence as a measure of living cells.

The test system of the next assay is bromodomain. The experiment in a line: Bromodomain cell assays of Example 40 (at least one of them). Type of assay: cell-based. The following applies: in at least one of the bromodomain cell assays described in Example 40.
Source text: as §1, §2
In MV-4-11 cells, BRD2, BRD3 and BRD4 bind to the promoter region of MYC and regulate its transcription (Dawson M A et al. 2011). The literature bromodomain inhibitor iBET 151 could disrupt BRD4 recruitment to the MYC promoter and subsequently downregulate c-myc transcription (Dawson M A et al. 2011). Myc protein is a transcription factor that heterodimerizes with an obligatory partner Max and regulates the transcription of genes important for cell proliferation, differentiation, and apoptosis. This Myc reporter assay is used to monitor the inhibitory effect of compound of formula (I) on Myc dependent gene expression. Effective compounds could have potential therapeutic effects in Myc-driven tumors.
The MV-4-11 Myc reporter cell line is established by infecting MV-4-11 with VSV-g pseudotyped lentivirus expressing the firefly luciferase gene under the control of a minimal (m) CMV promoter and tandem repeats of the E-box transcriptional response element (TRE) (Qiagen IL, USA) and selecting cells in […] Puromycin.
The MV-4-11 Myc reporter cell line is maintained in Iscove's Modified Dulbecco's Medium containing 10% FBS, 1% PenStep and 2.5 μg/ml Puromycin. Cells are incubated at 37° C. in a humidified atmosphere with 5% CO2. 25,000 cells are seeded in 96-well plate in 50 μL of culture media. After several hours, growth media containing 2× compounds are added to the wells. Compound at a maximal concentration of 5 mM is serially diluted 1:3 for a total of 8 point titration. A 1 μl aliquot of each dilution point is added to 249 μl growth media and 50 μl is added to each well containing cells, providing 10 μM compound at the maximum concentration point. DMSO treated cells serve as a high control and 10 μM JQ1 treated cells serve as a low control. Cells are incubated for a further 24 hours and 25 μL of CellTiter-Fluo Reagent (Promega Ga., USA) is added to each well. Plates are shaken for approximately 2 minutes and incubated at 37° C. for 0.5 hour. […]

The structures appear in SMILES notation.

A word on the IC50: it is the midpoint of a concentration-inhibition curve. Low values mean inhibition by little substance, high ones a need for much substance. In the case of `Cc1noc(C)c1-c1cnc2[nH]cc(C(=O)C3CCC(F)(F)CC3)c2c1` [P-0031, (4,4-difluorocyclohexyl)-[5-(3,5-dimethylisoxazol-4-yl)-1H-pyrrolo[2,3-b]pyridin-3-yl]methanone], the IC50 was 1 to 10 µM in the assay with MV-4-11 and below 10 µM with bromodomain.
Consider `Cc1noc(C)c1-c1cnc2c(-c3cnn(C(F)F)c3)cn(CC3CCC(F)(F)CC3)c2c1` [P-0210, 4-[1-[(4,4-difluorocyclohexyl)methyl]-3-[1-(difluoromethyl)pyrazol-4-yl]pyrrolo[3,2-b]pyridin-6-yl]-3,5-dimethyl-isoxazole], for which the IC50 in the assay on MV-4-11 was at most 1 µM; with bromodomain, below 10 µM.
For the compound `COc1ncc(F)cc1C(O)c1c[nH]c2ncc(-c3c(C)noc3C)cc12` (centres unmarked) [P-0022, [5-(3,5-dimethylisoxazol-4-yl)-1H-pyrrolo[2,3-b]pyridin-3-yl]-(5-fluoro-2-methoxy-3-pyridyl)methanol], the figures for the IC50 in the assay on MV-4-11 and in the assay on bromodomain were at most 1 µM and below 10 µM, respectively.
Take `Cc1noc(C)c1-c1cnc2c(-c3cnn(C)c3)cn(C(C)c3ccccc3)c2c1` (centres unmarked) [P-0161, 3,5-dimethyl-4-[3-(1-methylpyrazol-4-yl)-1-(1-phenylethyl)pyrrolo[3,2-b]pyridin-6-yl]isoxazole]: the results for the IC50 in the assay with MV-4-11 and in the assay on bromodomain were at most 1 µM and below 10 µM, respectively.
For `Cc1noc(C)c1-c1cnc2c(-c3cccnc3)cn(S(=O)(=O)c3ccccc3)c2c1` [P-0084, 4-[1-(benzenesulfonyl)-3-(3-pyridyl)pyrrolo[3,2-b]pyridin-6-yl]-3,5-dimethyl-isoxazole], the IC50 with MV-4-11 was at most 1 µM; in the assay with bromodomain, below 10 µM.
On to `Cc1noc(C)c1-c1cnc2[nH]cc(Cc3cccc4c3OC(F)(F)O4)c2c1` [P-0048, 4-[3-[(2,2-difluoro-1,3-benzodioxol-4-yl)methyl]-1H-pyrrolo[2,3-b]pyridin-5-yl]-3,5-dimethyl-isoxazole], for which the IC50 with MV-4-11 was 1 to 10 µM; in the assay with bromodomain, below 10 µM.
For `Cc1noc(C)c1-c1cnc2c(-c3cnn(C)c3)cn(S(=O)(=O)c3ccccc3F)c2c1` [P-0121, 4-[1-(2-fluorophenyl)sulfonyl-3-(1-methylpyrazol-4-yl)pyrrolo[3,2-b]pyridin-6-yl]-3,5-dimethyl-isoxazole] the same measures were at most 1 µM and below 10 µM.
The like results for `C=CCn1cc(-c2cn(S(=O)(=O)c3ccccc3)c3cc(-c4c(C)noc4C)cnc23)cn1` [P-0126, 4-[3-(1-allylpyrazol-4-yl)-1-(benzenesulfonyl)pyrrolo [3,2-b]pyridin-6-yl]-3,5-dimethyl-isoxazole] were, in that order, at most 1 µM and below 10 µM.
The like results for `Cc1noc(C)c1-c1cnc2c(-c3cnn(C)c3)cn(Cc3cscn3)c2c1` [P-0171, 3,5-dimethyl-4-[3-(1-methylpyrazol-4-yl)-1-(thiazol-4-ylmethyl)pyrrolo[3,2-b]pyridin-6-yl]isoxazole] were, in that order, at most 1 µM and below 10 µM.
For the compound `Cc1noc(C)c1-c1cnc2c(C#CCO)cn(S(=O)(=O)C3CCCC3)c2c1` [P-0156, 3-[1-cyclopentylsulfonyl-6-(3,5-dimethylisoxazol-4-yl)pyrrolo[3,2-b]pyridin-3-yl]prop-2-yn-1-ol], the IC50 with MV-4-11 is at most 1 µM; in the assay on bromodomain it was below 10 µM.
For `COc1ncc(C(O)c2c[nH]c3ncc(-c4c(C)noc4C)cc23)cc1F` (centres unmarked) [P-0025, [5-(3,5-dimethylisoxazol-4-yl)-1H-pyrrolo[2,3-b]pyridin-3-yl]-(5-fluoro-6-methoxy-3-pyridyl)methanol] the same measures were 1 to 10 µM and below 10 µM.
In the case of `Cc1noc(C)c1-c1cnc2c(-c3cnn(C)c3)cn(Cc3cc(F)ccc3Cl)c2c1` [P-0190, 4-[1-[(2-chloro-5-fluoro-phenyl)methyl]-3-(1-methylpyrazol-4-yl)pyrrolo[3,2-b]pyridin-6-yl]-3,5-dimethyl-isoxazole], the results for the IC50 in the assay with MV-4-11 and in the assay with bromodomain were at most 1 µM and below 10 µM, respectively.
With `COC(c1ccccc1Cl)c1c[nH]c2ncc(-c3c(C)noc3C)cc12` (centres unmarked) [P-0020, 4-[3-[(2-chlorophenyl)-methoxy-methyl]-1H-pyrrolo[2,3-b]pyridin-5-yl]-3,5-dimethyl-isoxazole], the half-inhibitory concentration (IC50) in the assay on MV-4-11 was at most 1 µM; in the assay with bromodomain, below 10 µM.
Take `Cc1noc(C)c1-c1cnc2c(-c3cnn(C)c3)cn(Cc3ccccc3OC(F)(F)F)c2c1` [P-0194, 3,5-dimethyl-4-[3-(1-methylpyrazol-4-yl)-1-[[2-(trifluoromethoxy)phenyl]methyl]pyrrolo[3,2-b]pyridin-6-yl]isoxazole]: the values for the concentration for half-maximal inhibition (IC50) in the assay with MV-4-11 and in the assay on bromodomain were at most 1 µM and below 10 µM, respectively.
For `Cc1noc(C)c1-c1cnc2c(c1)c(CC1CCN(C(=O)C(F)(F)F)CC1)cn2C` [P-0106, 1-[4-[[5-(3,5-dimethylisoxazol-4-yl)-1-methyl-pyrrolo[2,3-b]pyridin-3-yl]methyl]-1-piperidyl]-2,2,2-trifluoro-ethanone] the same measures were at most 1 µM and below 10 µM.
For `Cc1noc(C)c1-c1cnc2[nH]cc([S+]([O-])c3cccc(F)c3)c2c1` (centres unmarked) [P-0142, 4-[3-(3-fluorophenyl)sulfinyl-1H-pyrrolo[2,3-b]pyridin-5-yl]-3,5-dimethyl-isoxazole] the same measures were 1 to 10 µM and below 10 µM.
For `Cc1noc(C)c1-c1cnc2[nH]cc(C3=CCC(F)(F)CC3)c2c1` [P-0029, 4-[3-(4,4-difluorocyclohexen-1-yl)-1H-pyrrolo[2,3-b]pyridin-5-yl]-3,5-dimethyl-isoxazole] the same measures were 1 to 10 µM and below 10 µM.
Regarding `Cc1noc(C)c1-c1cnc2c(-c3cn[nH]c3)cn(S(=O)(=O)C3CCCC3)c2c1` [P-0167, 4-[1-cyclopentylsulfonyl-3-(1H-pyrazol-4-yl)pyrrolo[3,2-b]pyridin-6-yl]-3,5-dimethyl-isoxazole], the IC50 is at most 1 µM with MV-4-11 and below 10 µM in the assay on bromodomain.
For `CCCS(=O)(=O)n1cc(-c2cnn(CC(F)(F)F)c2)c2ncc(-c3c(C)noc3C)cc21` [P-0150, 3,5-dimethyl-4-[1-propylsulfonyl-3-[1-(2,2,2-trifluoroethyl)pyrazol-4-yl]pyrrolo[3,2-b]pyridin-6-yl]isoxazole] the same measures were at most 1 µM and below 10 µM.
The like results for `CCc1[nH]c2ncc(-c3c(C)noc3C)cc2c1C(O)c1cccc(OC(F)(F)F)c1` (centres unmarked) [P-0043, [5-(3,5-dimethylisoxazol-4-yl)-2-ethyl-1H-pyrrolo[2,3-b]pyridin-3-yl]-[3-(trifluoromethoxy)phenyl]methanol] were, in that order, 1 to 10 µM and below 10 µM.
On to `[2H]C([2H])(O)C(c1ccccc1)n1cc(-c2cnn(C)c2)c2ncc(-c3c(C)noc3C)cc21` (centres unmarked) [P-0218, 1,1-dideuterio-2-[6-(3,5-dimethylisoxazol-4-yl)-3-(1-methylpyrazol-4-yl)pyrrolo[3,2-b]pyridin-1-yl]-2-phenyl-ethanol], for which the IC50 in the assay with MV-4-11 is at most 1 µM; in the assay on bromodomain, below 10 µM.
As to `CCc1[nH]c2ncc(-c3c(C)noc3C)cc2c1C(O)c1ccccc1Cl` (centres unmarked) [P-0042, (2-chlorophenyl)-[5-(3,5-dimethylisoxazol-4-yl)-2-ethyl-1H-pyrrolo[2,3-b]pyridin-3-yl]methanol], the IC50 is at most 1 µM in the assay with MV-4-11 and below 10 µM in the assay with bromodomain.

(Values after US10501460B2, “Heterocyclic compounds and uses thereof” (Plexxikon Inc., priority 2013, dated 2019).)
